{"source": "patent US20230277669A1", "about": "“USES OF UROLITHINS” (Amazentis SA, priority 2022, published 2023)", "key": {"Pgam5^-/- CD8^+ T cells": {"tested_on": "Pgam5^-/- CD8^+ T cells", "experiment": "In vitro stimulation of PGAM5-/- CD8+ cells in presence of UA", "type": "cell-based, PGAM5^-/- mice", "protocol": "(FIG. 5H) Immunofluorescence of PGAM5 (green) in CD3+ cells after in vitro stimulation with aCD3/aCD28 stimulation beads for six hours. Cells were stained with Mitotracker Red to display mitochondrial colocalisation in the DMSO control as opposed to cytosolic release in the UA sample (m, mitochondrial co-localization; c, cytoplasmic localization) Scale=5 um. (FIG. 5I) In vitro stimulation of PGAM5^-/- CD8+ cells: Percentage of TSCM after 48 h of stimulation with aCD3/aCD28 stimulation beads in the presence of UA. All data depicts mean ± SD, n=4 per group. Statistics shown here depict unpaired, two-sided t-test and Mann-Whitney test (I; (DMSO vs UA25; DMSO vs UA50). *p < 0.05; n.s. not significant. (FIG. 5J) Percentage of CD95+ er 48 h of stimulation with aCD3/aCD28 stimulation beads in the presence of UA. (FIG. 5K) CD95+er 48 h of stimulation with aCD3/aCD28 stimulation beads in the presence of UA.\n(§1) (FIG. 5L) UA induces PGC-1α expression in stimulated CD8+ cells. PGC-1α MFI at 48 h upon stimulation, as assessed by intracellular staining, is shown (n=3). One of two independent experiments are shown. Data are mean ± SD, statistical analysis was performed by two-sided t-test (p**<0.01). (FIG. 5M) Mitochondrial content of TIL CD8+ cells harvested from APTK-carrying mice, fed UA or control diet as depicted in FIG. 1J. Assessed by Mitotracker Red staining. Data are mean ± SD, *p < 0.05 by two-sided t-test. (FIG. 5N) Mitophagy and subsequent PGAM5 release drive PGC-1α upregulation. PGC-1α expression of CD8+ cells derived from Pink1^-/- KO mice upon 48 h stimulation in vitro in the presence of UA or DMSO control (n=4). Data are mean ± SD, statistical analysis was performed by two-sided t-test. Depicts one of two independent experiments. (FIG. 5O) Mitophagy and subsequent PGAM5 release drive PGC-1 α upregulation. PGC-1α expression of CD8+ cells derived from PGAM5^-^/- mice upon 48 h stimulation in vitro in the presence of UA or DMSO control (n=4). Data are mean ± SD, statistical analysis was performed by two-sided t-test. […] Cells were co-treated with DMSO, UA and an inhibitor of PGC-1α (PGC-1αi) as indicated (n=4). One of two independent experiments are shown. Data are mean ± SD, statistical analysis was performed by two-sided t-test (p**<0.01; ***p <0.001; n.s. not significant).(FIG. 5Q) Urolithin A induces TSCM in human CD8+ cells: Schematic overview. PBMC were isolated from healthy donors, prior to T cell purification and in vitro stimulation via aCD3/aCD28 stimulation beads at the presence of UA or DMSO control. (FIG. 5R) Quantification of human TSCM (n=4). Representative data of one out of five donors with the same result are shown. (FIG. 5S) Quantification of TMRM^loCD8+ human cells 48 h after activation in the presence of UA or DMSO control (n=4). (FIG. 5T) TCF1 expression in human CD8 cells as assessed by flow cytometry (n=4). All data are mean ± SD; statistical analysis was performed by two-sided t-test (*p < 0.05; p**<0.01; p****0.0001).\n(FIG. 8B) qPCR analysis of selected Wnt target genes 24 h after stimulation (n=4). Data are mean ± SEM, statistical analysis was performed by two-sided t-test (* p<0.05, ** p<0.01, *** p<0.001). (FIG. 8C) CD8+ cells from PGAM5^-/- mice display an adequate mitophagy response upon UA treatment: Flow cytometry analysis of lysosome formation after six hours of in vitro stimulation via aCD3/aCD28 stimulation beads (n=4). (FIG. 8D) CD8+ cells from PGAM5^-/- mice display an adequate mitophagy response upon UA treatment: Mitotracker Red signal after 24 h in PGAM5^-/- CD8+ stimulated in vitro at the presence of UA or vehicle control. Congruent histograms are shown. Data are mean ± SD, statistical analysis was performed by two-sided t-test (* p<0.05, ** p<0.01, *** p<0.001). (FIG. 8E) Cytosolic fractionation Western blot of Pink1^-/- CD3+ cells 6 h after stimulation with plate-bound aCD3/aC28 antibodies in the presence of Urolithin A or DMSO control. […]"}, "human CD8^+ T cells": {"tested_on": "human CD8^+ T cells", "experiment": "Human CD3+ T cells from PBMC stimulated with aCD3/aCD28 beads in presence of UA", "type": "cell-based", "set-up": "frequency of human TSCM cells (CD45RA+CCR7hiCD62L+CD95+CD8+): dose or concentration left out as unconfirmed", "protocol": "as §1\n(FIG. 6A) Human PBMC were isolated from healthy donors, T cells were purified and stimulated ex-vivo with αCD3/αCD28 in the presence of UA ([…]) or DMSO control.\n(FIG. 6B) Frequency of human TSCM 48 h after stimulation as shown in (A). Data are mean ± SD, n=4, ****p<0.0001 by one-way ANOVA followed by Tukey’s multiple comparison test.\n(FIG. 6C) Quantification of human TMRM^loCD8^+ T cells 48 h after stimulation in the presence of UA or DMSO control .Data are mean ± SD, n=4,**p<0.01 by two-sided t test.\n(FIG. 6D) TCF1 expression in human CD8+ T cells 48 h after stimulation in the presence of UA or DMSO control. Data are mean ± SD, n=4,*p<0.05by two-sided t test. […]"}, "muscle function": {"tested_on": "muscle function", "settings": "urolithin A-high diet, cited from earlier work"}, "[1]": {"tested_on": "FoxP3+ T-regulatory cells", "settings": "cited from earlier work"}}}
{"molecule": "O=c1oc2cc(O)ccc2c2ccc(O)cc12", "note": "[Urolithin A]", "values": [{"measurement": "mitochondrial content (Mitotracker Red)", "setting": "Pgam5^-/- CD8^+ T cells; 24 h", "result": "reduced mitochondrial content"}, {"measurement": "PGC-1α expression", "setting": "Pgam5^-/- CD8^+ T cells; 48 h", "result": "failed to enhance"}, {"measurement": "TCF1", "setting": "Pgam5^-/- CD8^+ T cells; 48 h", "result": "failed to upregulate"}, {"measurement": "UA-dependent expansion of CD44-CD62L+Sca1hi TSCM cells", "setting": "Pgam5^-/- CD8^+ T cells; 48 h", "result": "blocked the UA-dependent expansion"}, {"measurement": "memory marker CD95", "setting": "Pgam5^-/- CD8^+ T cells; 48 h", "result": "failed to upregulate"}, {"measurement": "lysosome formation", "setting": "Pgam5^-/- CD8^+ T cells; six hours", "result": "still enhanced lysosome formation"}, {"measurement": "CD95hiCD62L+ cells within the CD45RA+CCR7hiCD8+ compartment", "setting": "human CD8^+ T cells", "result": "dose-dependent increase"}, {"measurement": "TCF1 expression (intracellular staining)", "setting": "human CD8^+ T cells; 48 h", "result": "increased TCF1 expression"}, {"measurement": "frequency of human TSCM cells (CD45RA+CCR7hiCD62L+CD95+CD8+)", "setting": "human CD8^+ T cells; 48 h, five out of five individual donors", "result": "increased the frequency"}, {"measurement": "mitochondrial membrane potential", "setting": "human CD8^+ T cells; after 48 hours", "result": "decreased mitochondrial membrane potential"}, {"measurement": "recovery of muscle function", "setting": "muscle function; mice with Duchenne muscular dystrophy", "result": "recovery of muscle function"}, {"measurement": "muscle function", "setting": "muscle function", "result": "superior muscle function"}, {"measurement": "FoxP3+ T-regulatory cells", "setting": "[1]", "result": "expanding FoxP3+ T-regulatory cells"}]}
